From paper PMC4183567, “Cysteine Transport through Excitatory Amino Acid Transporter 3 (EAAT3)” (PLoS ONE, 2014)
Where two headings read alike, the source gives them in different places.

Assays:
EAAT3 and ASCT1 [1] = target: T1, EAAT3 and ASCT1 (Homo sapiens, UniProt P43005); assay: Release of preloaded [3H]-L-glutamate from Xenopus oocytes co-expressing EAAT3 and ASCT1; type: cell-based; conditions: 1 mM extracellular substrate, data not shown
T1 construct: expressed in transfected cells; host or cells: Xenopus oocytes
T1 sequence (P43005 1-524): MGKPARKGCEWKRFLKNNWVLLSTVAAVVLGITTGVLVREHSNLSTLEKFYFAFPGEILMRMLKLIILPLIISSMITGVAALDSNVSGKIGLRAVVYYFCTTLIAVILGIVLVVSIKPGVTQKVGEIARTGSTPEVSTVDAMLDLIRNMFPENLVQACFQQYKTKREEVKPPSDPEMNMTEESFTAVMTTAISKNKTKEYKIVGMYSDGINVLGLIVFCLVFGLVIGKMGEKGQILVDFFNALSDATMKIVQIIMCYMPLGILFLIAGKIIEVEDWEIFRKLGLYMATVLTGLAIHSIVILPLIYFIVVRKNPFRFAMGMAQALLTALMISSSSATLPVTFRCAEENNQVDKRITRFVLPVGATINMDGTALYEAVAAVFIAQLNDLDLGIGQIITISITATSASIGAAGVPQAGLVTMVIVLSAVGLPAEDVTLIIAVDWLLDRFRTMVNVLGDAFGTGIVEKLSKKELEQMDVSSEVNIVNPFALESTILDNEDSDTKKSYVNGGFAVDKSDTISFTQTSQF
Experimental: (§1) mRNA from linearized pOTV-EAAT1, pOTV-EAAT2 and pOTV-EAAT3 was generated as previously described and resuspended in RNAase-free water and used for oocytes injections. Xenopus oocytes where injected with 50 nl of mRNA and incubated at 18°C in 96 mM NaCl, 2 mM KCl, 1.8 mM CaCl2, 1.0 mM MgCl2, 5 mM HEPES, pH 7.4 (ND96) supplemented with 2.5 mM Sodium Pyruvate and Gentamicyn for 2 to 3 days prior to using in electrophysiological recordings and radio-labeled transport experiments.
(§2) Oocytes were washed 3 times in ND96 buffer followed by incubation for 10 min with non-radiolabeled substrates as indicated. The supernatant was removed and collected for scintillation counting, while the oocytes were lysed in 1% sodium dodecylsulfate (SDS). The oocytes lysate and supernatant were counted separately by liquid scintillation counting to determine both retained and released radioactivity respectively. Percent of released radioactivity was determined as a function of the released/(retained + released).

EAAT3 and ASCT1 [2] = assay: Release of preloaded [35S]-L-cysteine from Xenopus oocytes co-expressing EAAT3 and ASCT1; type: cell-based, human; conditions: 10 min
Experimental: mRNA from linearized pOTV-EAAT1, pOTV-EAAT2 and pOTV-EAAT3 was generated as previously described and resuspended in RNAase-free water and used for oocytes injections.
as §2

EAATs = conditions: very low affinity; cited from earlier work
EAAT3 [3] = target: T2, EAAT3 (Homo sapiens, UniProt P43005); assay: Substrate-gated anion (NO3) currents in Xenopus oocytes expressing EAAT3; type: cell-based; conditions: 1 mM substrate, NaNO3, oocytes expressing EAAT3 alone, Figure 7C, n = 6
T2 sequence (P43005 1-524): T1 sequence (P43005 1-524)
Experimental: as §1
(§3) Oocytes were held at −60 mV, and currents elicited by 200 ms voltage steps between −120 mV and +60 mV were filtered at 2 kHz (−3dB) and digitalized with a sampling rate of 10 kHz using a Digidata AD/DA converter (Molecular Devices, Sunnyvale, CA, USA). Borosilicate pipets where filled with 3 M KCl and typical resistances where 0.2 to 1 MΩ. Transport currents were determined at −60 mV in a gluconate-based ND96 solution. In order to dialyze internal chloride, oocytes were incubated 12 to 24 hours in the gluconate solution. Anion currents were determined at positive potentials (+60 mV) after exchanging the external solution to NO3-based ND96 (replacement of 96 mM NaCl with 96 mM NaNO3) solution in the absence or in the presence of 1 mM external substrates. In experiments using cysteine as a substrate, all solutions contained 2 mM dithiothreitol (DTT). Data were analyzed with a combination of pClamp 9.2 (Axon Instrument) and Sigma Plot (Jandel Scientific, San Rafael, CA, USA). Whole cell current amplitudes are shown without any subtraction protocol. Current-voltage relationships were constructed by plotting the isochronal current 6 ms after the voltage step versus the membrane potential. All data are given as the mean ± standard deviation of the mean (SDM). For evaluation the statistical relevance, the Student’s t-Test was used with an α of 0.05.

EAAT3 and ASCT1 [4] = assay: Substrate-gated NO3 currents in Xenopus oocytes co-expressing EAAT3 and ASCT1; type: cell-based, human; conditions: 1 mM substrate, oocytes co-expressing EAAT3 and ASCT1, n = 4
Experimental: as §1
as §3, with “In experiments using cysteine as a substrate, all solutions contained 2 mM dithiothreitol (DTT).” left out, “Whole cell current amplitudes are shown without any subtraction protocol. Current-voltage relationships were constructed by plotting the isochronal current 6 ms after the voltage step versus the membrane potential. All data are given as the mean ± standard deviation of the mean (SDM). For evaluation the statistical relevance, the Student’s t-Test was used with an α of 0.05.” left out

EAAT3 [5] = target: T2, EAAT3; assay: mEGFPpH fluorescence imaging of intracellular pH in HEK293 cells co-expressing EAAT3; conditions: 100 µM perfusion, EAAT3 HEK293 cells
Source text: Cells expressing mEGFPpH were imaged with a Zeiss Axiovert 135T inverted microscope with a 40X NeoFluar oil immersion objective (NA1.3). A Lambda DG4 (Sutter Instrument Co.) equipped with a xenon arc lamp was used for high-speed excitation wavelength switching. Images were collected using either a Quantix (Roper Scientific, Tucson, AZ) or an Orca ER (Hammamatsu Co.) cooled CCD. For pH imaging experiments, the fluorescence filters (Omega Optical) were: excitation 405±20 and 485±7.5; dichroic 400-480-585DLRP; emission 510±11.5. Software control and data acquisition were accomplished using Axon Imaging Workbench (INDEC Biosystems) or OpenLab acquisition software (Improvision, Perkin Elmer). Cells were incubated at room temperature with continuous perfusion using standard buffer containing (in mM): 146 NaCl, 5 KCl, 5 HEPES, 2.5 CaCl2 and 1.2 MgCl2 at pH 7.35 with additions (substrates etc.) as indicated in figure legends. Acquisition exposure times were identical for both 405 nm and 485 nm excitation wavelengths adjusted so that the 510 emission was not saturated for either excitation wavelength. Prior to perfusion with buffers containing substrates, cells were perfused in standard buffer to achieve a stable base line. Fluorescence was reported as the ratio of fluorescence at 510 nm by excitation with 485 and 405 nm wavelengths (F485/F405).

In the case of `N[C@@H](CO)C(=O)O` [serine, L-serine], the “release of loaded [3H]-L-glutamate” value (EAAT3 and ASCT1 [1]) is reported as “did not induce significant release”, the “release of preloaded [35S]-L-cysteine” value (EAAT3 and ASCT1 [2]; 300 µM extracellular substrate) is reported as 10% and the “release of preloaded [35S]-L-cysteine” value (EAAT3 and ASCT1 [2]; 1 mM extracellular substrate) is reported as 20%. For the same molecule, the “affinity for the transporters” value (EAATs) was over 1 mM, the “average anion current amplitude at +60 mV” value (EAAT3 [3]) was 0.60±0.05 µA and the “macroscopic anion current amplitude at +60 mV” value (EAAT3 and ASCT1 [4]) was 0.6±0.07 µA.

With `Cl.N` [NH4Cl] the “average intracellular pH (pHi)” value (HEK293 cells; after NH4Cl washout) was about 6.5 and the “average intracellular pH (pHi)” value (HEK293 cells; during 50 mM NH4Cl perfusion, initial pHi ~7.4, n = 4) was about 8.5.

In the case of `C[C@H](N)C(=O)O` [alanine], the “affinity for the transporters” value (EAATs) is listed as over 1 mM.

With `N[C@H](CC(=O)O)C(=O)O` [D-aspartate] the mEGFPpH fluorescence change (EAAT3 [5]) was “fluorescence decrease similar to that observed for 100 µM glutamate”.
